From ChEMBL document CHEMBL2440104, “Synthesis and Biological Evaluation of the First Example of NO-Donor Histone Deacetylase Inhibitor” (ACS Med Chem Lett, 2013) come the findings set out here.

The target in experiment [1] is Histone deacetylase 4 (Homo sapiens) (UniProt P56524). As to the kind of experiment: Induction of HDAC4 nuclear shuttling in human HaCaT cells at 10 uM after 1 hr by immunofluorescence method relative to DMSO-treated control. Type of experiment: cell-based.
Experiment [2] relates to HaCaT. As to the kind of experiment: Induction of NO release in human HaCaT cells at 10 uM after 1 to 5 hrs by DAF-2D-based FACS analysis relative to DMSO-treated control. Type of experiment: functional, cell-based. (In general: In flow cytometry, cells or beads pass a laser one at a time.)
Experiment [3] deals with Histone deacetylase 2 (Homo sapiens) (UniProt Q92769). As to the kind of experiment: Induction of HDAC2 cysteine S-nitrosylation in human HaCaT cells at 10 uM after 1 hr by immunoprecipitation method. The class given is cell-based.
Histone deacetylase 2 (Homo sapiens), sequence (Q92769 whole entry): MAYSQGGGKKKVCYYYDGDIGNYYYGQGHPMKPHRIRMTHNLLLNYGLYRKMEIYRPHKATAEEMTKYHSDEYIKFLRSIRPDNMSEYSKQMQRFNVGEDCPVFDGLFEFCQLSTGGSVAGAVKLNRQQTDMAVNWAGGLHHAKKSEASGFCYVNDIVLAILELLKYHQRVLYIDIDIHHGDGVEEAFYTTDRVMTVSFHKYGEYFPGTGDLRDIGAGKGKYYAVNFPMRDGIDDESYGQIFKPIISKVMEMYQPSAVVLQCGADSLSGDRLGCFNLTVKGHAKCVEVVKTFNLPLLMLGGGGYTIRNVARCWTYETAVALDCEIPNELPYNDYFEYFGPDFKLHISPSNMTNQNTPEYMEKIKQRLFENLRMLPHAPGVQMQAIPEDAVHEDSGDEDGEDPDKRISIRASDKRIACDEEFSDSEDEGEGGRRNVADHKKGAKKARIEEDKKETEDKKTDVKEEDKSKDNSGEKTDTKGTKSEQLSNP
Experiment [4] deals with T1, Histone deacetylase (Homo sapiens) (UniProt Q13547+O15379+Q9UBN7+Q92769+Q9UQL6+Q8WUI4+Q9BY41+Q96DB2+P56524+Q9UKV0+Q969S8). As to the kind of experiment: Effect on HDAC in human HaCaT cells assessed as upregulation of miR-1305 at 10 uM after 1 hr by RT-PCR analysis. The class given is cell-based.
The subject of experiment [5] is C2C12. As to the kind of experiment: Modulation of mouse C2C12 cell proliferation at 0.1 uM after 72 hrs. Type of experiment: functional, cell-based.
Experiment [6] deals with T1, Histone deacetylase (Homo sapiens). As to the kind of experiment: Effect on HDAC in human HaCaT cells assessed as downregulation of miR-27a# at 10 uM after 1 hr by RT-PCR analysis. The class given is cell-based.
Experiment [7] has as its system HaCaT. As to the kind of experiment: Induction of NO release in human HaCaT cells assessed as Production of [3H]cGMP after 1 hr by liquid scintillation counting. The class given is functional, cell-based.
The subject of experiment [8] is C2C12. Nature of the experiment: Induction of myogenic differentiation in mouse C2C12 cells assessed as MHC-positive fibers at 0.1 uM after 7 days by immunofluorescence microscopy. The class given is functional, cell-based.
Experiment [9] has as its target T1, Histone deacetylase (Homo sapiens). As to the kind of experiment: Effect on HDAC in human HaCaT cells assessed as downregulation of miR-19b-1 at 10 uM after 1 hr by RT-PCR analysis. The class given is cell-based.
Experiment [10] has the same target. Nature of the experiment: Effect on HDAC in human HaCaT cells assessed as upregulation of miR-18a# at 10 uM after 1 hr by RT-PCR analysis. The class given is cell-based.
Experiment [11] has the same target. As to the kind of experiment: Effect on HDAC in human HaCaT cells assessed as downregulation of miR-378 at 10 uM after 1 hr by RT-PCR analysis. Type of experiment: cell-based.
Experiment [12] has the same target. Nature of the experiment: Effect on HDAC in human HaCaT cells assessed as downregulation of miR-1254 at 10 uM after 1 hr by RT-PCR analysis. The class given is cell-based.
The target is the same in experiment [13]. As to the kind of experiment: Effect on HDAC in human HaCaT cells assessed as upregulation of miR-409-3p at 10 uM after 1 hr by RT-PCR analysis. Type of experiment: cell-based.
The target is the same in experiment [14]. The following applies: HaCaT, at 1 to 50 µM.
Description: Inhibition of HDAC activity in human HaCaT cell lysate at 1 to 50 uM after 1 hr by colorimetry
For experiment [15] the target is unchanged. As to the kind of experiment: Effect on HDAC in human HaCaT cells assessed as downregulation of miR-99b# at 10 uM after 1 hr by RT-PCR analysis. Type of experiment: cell-based.
Experiment [16] has the same target. As to the kind of experiment: Effect on HDAC in human HaCaT cells assessed as downregulation of miR-200a# at 10 uM after 1 hr by RT-PCR analysis. Type of experiment: cell-based.
The target is the same in experiment [17]. As to the kind of experiment: Effect on HDAC in human HaCaT cells assessed as downregulation of miR-33a# at 10 uM after 1 hr by RT-PCR analysis. Type of experiment: cell-based.
Experiment [18] has the same target. As to the kind of experiment: Effect on HDAC in human HaCaT cells assessed as upregulation of miR-192# at 10 uM after 1 hr by RT-PCR analysis. Type of experiment: cell-based.
In experiment [19] the target is Histone deacetylase 2 (Homo sapiens) (UniProt Q92769). Nature of the experiment: Induction of HDAC2 cysteine S-nitrosylation in human HaCaT cells at 10 uM after 1 hr by immunoprecipitation method in prsence of NO scavenger PTIO. Type of experiment: cell-based.
Experiment [20] has as its target T1, Histone deacetylase (Homo sapiens). As to the kind of experiment: Effect on HDAC in human HaCaT cells assessed as downregulation of miR-106b# at 10 uM after 1 hr by RT-PCR analysis. Type of experiment: cell-based.
The test system of experiment [21] is C2C12. As to the kind of experiment: Induction of myogenic differentiation in mouse C2C12 cells assessed as increase in number of nuclei per fiber at 0.1 uM after 7 days by immunofluorescence microscopy. The class given is functional, cell-based.
The target of experiment [22] is T1, Histone deacetylase (Homo sapiens). As to the kind of experiment: Effect on HDAC in human HaCaT cells assessed as downregulation of miR-505# at 10 uM after 1 hr by RT-PCR analysis. The class given is cell-based.
For experiment [23] the target is unchanged. As to the kind of experiment: Effect on HDAC in human HaCaT cells assessed as upregulation of miR-1296 at 10 uM after 1 hr by RT-PCR analysis. The class given is cell-based.
In experiment [24] the test system is C2C12. Nature of the experiment: Increase in mouse C2C12 cell proliferation at 0.1 uM after 72 hrs. The class given is functional, cell-based.
For experiment [25], the target named is T1, Histone deacetylase (Homo sapiens). Nature of the experiment: Effect on HDAC in human HaCaT cells assessed as upregulation of miR-30d# at 10 uM after 1 hr by RT-PCR analysis. Type of experiment: cell-based.
Experiment [26] shares this target. As to the kind of experiment: Inhibition of HDAC activity in human HaCaT cell lysate at 50 uM after 1 hr by colorimetry. Type of experiment: cell-free.

Calls of active or inactive are those of the source. The calls are words filed in the database; no cut-off is given here.

Histone deacetylase 4 (Homo sapiens), sequence (P56524 whole entry): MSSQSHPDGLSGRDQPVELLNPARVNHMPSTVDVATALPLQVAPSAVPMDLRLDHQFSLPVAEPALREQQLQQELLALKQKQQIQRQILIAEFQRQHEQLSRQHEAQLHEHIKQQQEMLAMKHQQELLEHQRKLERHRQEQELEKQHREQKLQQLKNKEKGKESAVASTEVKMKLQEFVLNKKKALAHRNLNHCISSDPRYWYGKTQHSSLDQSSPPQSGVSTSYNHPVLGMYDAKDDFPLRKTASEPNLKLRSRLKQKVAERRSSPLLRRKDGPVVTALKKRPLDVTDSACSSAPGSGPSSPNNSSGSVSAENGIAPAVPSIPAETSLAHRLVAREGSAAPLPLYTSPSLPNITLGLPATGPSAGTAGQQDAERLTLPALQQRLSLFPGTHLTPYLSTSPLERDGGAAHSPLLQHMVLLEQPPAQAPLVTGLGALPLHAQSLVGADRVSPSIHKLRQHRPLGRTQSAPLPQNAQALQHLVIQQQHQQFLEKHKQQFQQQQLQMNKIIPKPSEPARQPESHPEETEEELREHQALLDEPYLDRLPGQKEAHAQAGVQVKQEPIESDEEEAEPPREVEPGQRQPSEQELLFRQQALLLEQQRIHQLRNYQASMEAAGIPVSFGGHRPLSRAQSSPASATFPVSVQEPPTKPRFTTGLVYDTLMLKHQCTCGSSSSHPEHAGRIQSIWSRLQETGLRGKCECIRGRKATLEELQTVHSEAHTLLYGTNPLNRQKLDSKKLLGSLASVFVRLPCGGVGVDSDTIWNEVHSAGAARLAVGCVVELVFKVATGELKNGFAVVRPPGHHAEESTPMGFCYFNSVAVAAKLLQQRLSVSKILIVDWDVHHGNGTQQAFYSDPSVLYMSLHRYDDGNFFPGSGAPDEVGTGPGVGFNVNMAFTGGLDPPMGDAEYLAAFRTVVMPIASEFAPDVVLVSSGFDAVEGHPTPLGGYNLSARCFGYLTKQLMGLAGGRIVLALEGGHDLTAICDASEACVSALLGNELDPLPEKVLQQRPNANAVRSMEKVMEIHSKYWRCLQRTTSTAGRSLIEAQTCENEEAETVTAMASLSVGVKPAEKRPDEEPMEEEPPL

Consider `CN(Cc1ccc(COC(=O)NCc2ccc(C(=O)Nc3ccccc3N)cc2)cn1)Cc1no[n+]([O-])c1C#N`, for which the outcome in experiment [1], in [2], in experiment [3], in experiment [4], in experiment [5] and in [6] was Active. For the same compound, the result in experiment [8], in experiment [9], in experiment [10], in experiment [11], in experiment [12] and in experiment [13] was Active. In addition, the result in experiment [15], in [16], in [17], in experiment [18], in [20] and in experiment [21] was Active. Moreover, the Activity result in experiment [7] was “Dose-dependent effect”. Further, in experiment [14], the inhibition entry is “Active”. The result in experiment [19] was inactive.

For `CN(C)Cc1no[n+]([O-])c1C#N`, the outcome in experiment [1], in experiment [2], in experiment [22], in [23], in [24] and in experiment [11] was Active. Further, the result in experiment [25] and in experiment [20] was Active. In addition, in [26], the inhibition entry was “Active”.

On to `Nc1ccccc1NC(=O)c1ccc(CNC(=O)OCc2cccnc2)cc1`, for which the result in experiment [1] and in [2] was inactive. Moreover, the outcome in experiment [5] was Active.
